# Measured values reported in US12371662B2, “Cell-based treatment and drug discovery in Hirschsprung's disease enabled by pluripotent stem cell-derived human enteric neural crest lineages” (MEMORIAL SLOAN-KETTERING CANCER CENTER, priority 2015, dated 2025).
# Where a SMILES comes first, the peptide text is derived from it. [ ]: non-standard residue; d: D form. The star is where a group is joined. Sta = CC(C)C[C@H](N)[C@@H](O)CC(=O)O; Isovaleryl = CC(C)CC(=O)*
# What was measured:
# rodent GSK3β homologs = conditions: cited from earlier work
# [1] = tested on: CD49D purified EDNRB−/− hESC-derived ENC; assay: Scratch (migration) assay on EDNRB−/− ENC precursors; type: cell-based, human
# Method: The ENC cells were plated on PO/LM/FN coated (prepared as described previously^38) 96 well or 48 well culture plates (30,000/cm^2). 24 hours later the culture lawn was scratched manually using a pipette tip. The cells were given an additional 24-48 hours to migrate into the scratch area and fixed for imaging and quantification. The quantification was based on the percentage of the nuclei that are located in the scratch area after the migration period. The scratch area was defined using a reference well that was fixed immediately after scratching. Migration of cells were quantified using the open source data analysis software KNIME^41 (http://knime.org) with the “Quantification in ROI” plug-in as described in detail elsewhere^42.
# The chemical compound screening was performed using the Prestwick Chemical Library®. The ENC cells were plated in 96 well plates (30,000/cm^2) and scratched manually 24 hours before addition of the compounds. The cells were treated with two concentrations of the compounds (10 μM and 1 μM). The plates were fixed 24 hours later for total plate imaging. The compounds were scores based on their ability to promote filling of the scratch in 24 hours. […] The hits were further validated to ensure reproducibility. The cells were treated with various concentrations of the selected hit compound (Pepstatin A) for dose response analysis. The optimal dose (10 μM-based on optimal response and viability) was used for follow-up experiments. For the pre-treatment experiments, cells were CD49D purified at day 11 and treated with Pepstatin A from day 12 through day 15 followed by transplantation into the colon wall of NSG mice.
# To inhibit BACE2, the ENC precursors were treated with 1 μM β-Secretase Inhibitor IV (CAS 797035-11-1—Calbiochem). […] The Knockdown was confirmed by qRT-PCR measurement of BACE2 mRNA levels in cells transfected with the BACE2 siRNAs vs. the control siRNA pool (ON-TARGETplus Non-targeting Pool, Dharmacon, D-001810-10-05). The transfected cells were scratched 24 hours after plating and fixed 48 hours later for migration quantification.
# [2] = tested on: EDNRB−/− hESC-derived ENC precursors; assay: Colon migration after transplantation of pre-treated EDNRB−/− ENC precursors into NSG mice; type: in vivo, human cells in NSG mice; conditions: EDNRB-null precursors pre-treated for 72 hours before transplantation, 2 weeks
# Method: All mouse procedures were performed following NIH guidelines, and were approved by the local Institutional Animal Care and Use Committee (IACUC), the Institutional Biosafety Committee (IBC) as well as the Embryonic Stem Cell Research Committee (ESCRO). 3-6 week old male NSG (NOD.Cg-Prkdc^scid Il2rg^tm1Wjl/SzJ) mice or 2-3 weeks old EDNRB^s-l/s-l (SSL/LeJ) mice^39 (n=12, 6 male, 6 female) were used for these studies. […] Animals were randomly selected for the various treatment paradigms (NSG and EDNRB^s-l/s-l) but assuring for equal distribution of male/female ratio in each group (EDNRB^s-l/s-l). Animals were anesthetized with isoflurane (1%) throughout the procedure, a small abdominal incision was made, abdominal wall musculature lifted and the cecum is exposed and exteriorized. Warm saline was used to keep the cecum moist. 20 μl of cell suspension (2-4 million RFP+CD49D purified hESC-derived ENC precursors) in 70% matrigel (BD Biosciences, 354234) in PBS or 20 μl of 70% matrigel in PBS only (control grafted animals) were slowly injected into the cecum (targeting the muscle layer) using a 27-gauge needle. […]
# The harvested colon samples were fixed in 4% PFA at 4° C. overnight before imaging. Imaging was performed using Maestro fluorescence imaging system (Biotechniques). […]
compound,measurement,setting,value
"Cc1c[nH]c(-c2cnc(NCCNc3ccc(C#N)cn3)nc2-c2ccc(Cl)cc2Cl)n1 [CHIR99021, 6-(2-(4-(2,4-dichlorophenyl)-5-(4-methyl-1H-imidazol-2-yl)pyrimidin-2-ylamino)ethylamino)nicotinonitrile]",IC50 values against rodent GSK3β homologs,rodent GSK3β homologs,nanomolar
CC(C)CC(=O)N[C@H](C(=O)N[C@H](C(=O)N[C@@H](CC(C)C)[C@@H](O)CC(=O)N[C@@H](C)C(=O)N[C@@H](CC(C)C)[C@@H](O)CC(=O)O)C(C)C)C(C)C [Pepstatin A] (Isovaleryl-VV[Sta]A[Sta]-OH),rescue of the migration defect in scratch assay,"[1]; EDNRB−/− hESC derived NC precursors, range of concentrations, treatment started 24 hrs before scratching","dose-dependent, near complete rescue of the migration defect"
same,optimal dose (based on optimal response and viability),"[1]; dose response analysis, EDNRB−/− ENC",10 µM
same,rescue of in vivo migration behavior in adult colon,[2],significant rescue of the in vivo migration behavior
BACE inhibitor IV,rescue of the migration defect in scratch assay,"[1]; EDNRB−/− hESC-derived ENC, 1 μM",rescued the migration defect
